We go through 8 molecules from PubChem BioAssay (NCI).

Common to all, as to test: inhibition of tumour cell growth, NCI panel, 48 h
The subject of experiment [1] is NCI-H226 lung.
The subject of experiment [2] is DU-145 prostate.
Experiment [3] concerns HOP-92 NSCLC.
Experiment [4] concerns HCC-2998 colon.
Experiment [5] deals with T-47D breast.
Experiment [6] has as its system PC-3 prostate.
For experiment [7], the system named is OVCAR-3 ovarian.
The subject of experiment [8] is LOX IMVI melanoma.
Experiment [9] has as its system HCT-116 colon.
For experiment [10], the system named is HS 578T breast.
For experiment [11], the system named is CCRF-CEM leukemia.
Experiment [12] deals with NCI/ADR-RES ovarian.
Experiment [13] deals with CAKI-1 renal.
Experiment [14] deals with HT29 colon.
Experiment [15] deals with MOLT-4 leukemia.
For experiment [16], the system named is TK-10 renal.
The subject of experiment [17] is NCI-H522 lung.
In experiment [18] the test system is MCF7 breast.
Experiment [19] deals with HL-60(TB) leukemia.
Experiment [20] relates to MALME-3M melanoma.

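96-well plates; 48 h exposure; 5 concentrations. Endpoints by linear interpolation between flanking doses. Not reached: highest tested concentration assigned. TGI denotes the concentration required for complete inhibition of growth.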 Bounds are passed on as bounds.

As to `O=C1OC([C@H](O)c2cccnc2)c2ccccc21` (stereo not given in full), the TGI in experiment [1], in experiment [2], in [3], in [4], in experiment [5] and in experiment [6] was over 10 µM each time. The TGI in experiment [7], in experiment [8], in experiment [9], in [10], in experiment [11] and in experiment [12] was over 10 µM in each case. Moreover, the TGI in experiment [13], in experiment [14], in experiment [15], in experiment [16], in experiment [17] and in experiment [18] was over 10 µM each time. The molecule also gave a TGI in [19] of over 10 µM.
Regarding `Cc1nn(C(=O)c2ccncc2)c2c1C(c1ccccc1[N+](=O)[O-])SC(N)=N2` (stereo not given), the TGI in [1], in experiment [2], in experiment [3], in experiment [4], in [5] and in experiment [6] was over 10 µM each time. Besides, the TGI in [20], in [7], in [8], in experiment [9], in experiment [10] and in [11] was over 10 µM throughout. In addition, the TGI in experiment [12], in [13], in [14], in [15], in experiment [16] and in experiment [18] was over 10 µM in each case. The same molecule returned a TGI in experiment [19] of over 10 µM.
Turning to `COC(=O)/C=C/[C@@H]1[C@H](C)N1S(=O)(=O)c1ccc(C)cc1` (stereo not given in full), the TGI in experiment [1], in experiment [2], in experiment [4], in experiment [5], in experiment [6] and in experiment [20] was over 100 µM throughout. Besides, the TGI in experiment [7], in experiment [8], in [9], in [10], in experiment [11] and in [12] was over 100 µM in each case. Moreover, the TGI in experiment [13], in experiment [14], in [15], in experiment [16], in experiment [17] and in experiment [18] was over 100 µM throughout. The molecule also displayed a TGI in experiment [19] of over 100 µM.
For `CCOC(=O)c1nc2ccc(C(F)(F)F)cc2nc1Nc1ccc(OC)cc1`, the TGI in experiment [1] was over 100 µM; in experiment [2], over 100 µM; in [3], 49.2 µM; in experiment [4] it was over 100 µM; in [5], over 100 µM; in [6], over 100 µM. The TGI in experiment [20], in experiment [7], in [8], in experiment [9], in experiment [10] and in experiment [11] was over 100 µM throughout. The TGI in experiment [12], in experiment [14], in experiment [15], in [16], in [17] and in [18] was over 100 µM throughout. Besides, in experiment [19], the TGI is over 100 µM.
For the molecule `C=C1C(=O)O[C@H]2C1C[C@H](O)[C@@]1(C)OC1CC[C@@]1(C)O[C@H]21` (stereo not given in full), the TGI in [2] was over 100 µM; in [3], 36.5 µM; in experiment [4], 28.5 µM; in experiment [5], 36.4 µM; in [6], 39.1 µM; in experiment [20], 27.4 µM. For the same molecule, the TGI is 30.2 µM in experiment [9]; over 100 µM in experiment [10]; 8.68 µM in experiment [11]; 44 µM in experiment [12]; 33.5 µM in experiment [13]; over 100 µM in experiment [14]. Also, the TGI in experiment [15] came to 29.8 µM; in experiment [16], 36.5 µM; in experiment [17], 11.9 µM; in [18], 29.5 µM.
Turning to `CCCCCCCCCCCCOCC1(COCCCCCCCCCCCC)COC(c2ccc(N)cc2)OC1`, the TGI in experiment [1], in experiment [2], in experiment [4], in [5], in experiment [6] and in [20] was over 100 µM in each case. In addition, the TGI in experiment [7], in [8], in experiment [9], in [10], in [12] and in experiment [13] was over 100 µM in each case. Also, the TGI in experiment [14], in [15], in experiment [16] and in [18] was over 100 µM throughout.
On to `C=CCN1CCC(c2cc(C(=O)OCC)[nH]c2-c2cc(C)no2)C1=O` (stereo not given), for which the TGI in experiment [1], in experiment [2], in [3], in experiment [4], in experiment [5] and in [6] was over 100 µM throughout. For the same molecule, the TGI in [20], in experiment [7], in [8], in experiment [9], in [10] and in experiment [11] was over 100 µM throughout. Moreover, the TGI in experiment [12], in experiment [13], in experiment [14], in experiment [15], in experiment [18] and in experiment [19] was over 100 µM throughout.
For the molecule `COc1ccc(COCC[C@H](C)OC2OC(CO)C(O)C(O)C2O)cc1` (stereo not given in full), the TGI in [1], in experiment [2], in [3], in experiment [4], in experiment [5] and in experiment [6] was over 100 µM in each case. Also, the TGI in experiment [7], in [8], in experiment [9], in [10], in [11] and in experiment [12] was over 100 µM each time. In addition, the TGI in experiment [13], in [14], in experiment [15], in [16], in [17] and in experiment [18] was over 100 µM in each case. The molecule also gave a TGI in [19] of over 100 µM.
